In data set [1] the test system is Microfilaria of Dirofilaria immitis. Put plainly: Method B: survival of microfilaria of Dirofilaria immitis in microtitre plate. The following applies: 72 h, read-out: median EC50, survival of microfilaria at 72 hours.
The next data set deals with Haemonchus contortus. Put plainly: Method A: development of L1 Haemonchus contortus larvae in microtitre plate. Particulars: 96 h; for EC50: read-out: median EC50.
For data set [2] the following is noted: amide bond, 24-membered ring, BOP-Cl/DIEA.
The conditions of data set [3]: the molecule shown is the open-chain precursor; amide bond; 24-membered ring; BOP-Cl/DIEA; DCM; 58.9 mM.

Converted amounts (≈) assume the structure as drawn. Like-named read-outs stand apart in the source and are kept apart here.

A word on the EC50: it is the midpoint of the concentration-response curve. As a reminder, the MIC90 is an inhibitory concentration at the 90% level, which refers to growth in some studies and to a panel of isolates in others.

Method for Haemonchus contortus: Twenty L1 Haemonchus contortus larvae were added to wells of a microtitre plate containing a nutrient medium and the test compound in DMSO. An analysis was conducted at 4 days to determine the extent of development of the larvae. Larvae exposed to DMSO alone served as controls. The potencies of the compounds were evaluated in an MIC90 and/or EC50 format.

On to `CC(C)C[C@H]1C(=O)O[C@H](C)C(=O)N(C)[C@@H](CC(C)(C)F)C(=O)O[C@H](Cc2ccc(C(F)(F)F)cc2)C(=O)N(C)[C@@H](CC(C)C)C(=O)O[C@H](C)C(=O)N(C)[C@@H](CC(C)(C)F)C(=O)O[C@H](Cc2ccc(C(F)(F)F)cc2)C(=O)N1C` [Compound 4-18], for which the EC50 in data set [1] was under 0.1 µM; with Haemonchus contortus it was 0.1 to 1 µM. Further, the ring closure, yield after HPLC in data set [2] (from H-MeLeu(4-F)-dPhLac(4-CF3)-MeLeu-dLac-MeLeu(4-F)-dPhLac(4-CF3)-MeLeu-dLac-OH?, DCM, 5.2 mM, 25.0 °C) is 34%.

For the molecule `C[C@H]1OC(=O)[C@H](CC(C)(C)C)N(C)C(=O)[C@@H](Cc2ccc(OC(F)(F)F)cc2)OC(=O)[C@H](CC(C)(C)F)N(C)C(=O)[C@@H](C)OC(=O)[C@H](CC(C)(C)C)N(C)C(=O)[C@@H](Cc2ccc(OC(F)(F)F)cc2)OC(=O)[C@H](CC(C)(C)F)N(C)C1=O` [Compound 5-32], the EC50 (in data set [1]; in the data set with Haemonchus contortus) was 0.1 to 1 µM throughout. In data set [2] (from H-MeLeu(4-F)-dPhLac(4-OCF3)-MeLeu(4-Me)-dLac-MeLeu(4-F)-dPhLac(4-OCF3)-MeLeu(4-Me)-dLac-OH, DCM, 4.17 mM), the ring closure, yield after HPLC came to 59%.

Regarding `CC(C)C[C@H]1C(=O)O[C@H](C)C(=O)N(C)[C@@H](CC(C)(C)F)C(=O)O[C@H](Cc2ccc(N3CCOCC3)cc2)C(=O)N(C)[C@@H](CC(C)C)C(=O)O[C@H](C)C(=O)N(C)[C@@H](CC(C)(C)F)C(=O)O[C@H](Cc2ccc(N3CCOCC3)cc2)C(=O)N1C` [Compound 6-18], the EC50 in the data set on Haemonchus contortus was 0.1 to 1 µM. This molecule also gave a ring closure, yield after HPLC in data set [2] (from H-MeLeu(4-F)-dPhLac(4-morpholinyl)-MeLeu-dLac-MeLeu(4-F)-dPhLac(4-morpholinyl)-MeLeu-dLac-OH?, DCM, 1.7 mM, 25.0 °C) of 23%.

As to `CC(C)C[C@H]1C(=O)O[C@H](C)C(=O)N(C)[C@@H](CC(C)(C)F)C(=O)O[C@H](Cc2ccc(C3CCOCC3)cc2)C(=O)N(C)[C@@H](CC(C)C)C(=O)O[C@H](C)C(=O)N(C)[C@@H](CC(C)(C)F)C(=O)O[C@H](Cc2ccc(C3CCOCC3)cc2)C(=O)N1C` [Compound 7-18], the EC50 in data set [1] is under 0.1 µM; in the data set on Haemonchus contortus, 1 to 10 µM. This molecule also had a ring closure, yield after HPLC in data set [2] (from H-MeLeu(4-F)-dPhLac(4-(oxan-4-yl))-MeLeu-dLac-MeLeu(4-F)-dPhLac(4-(oxan-4-yl))-MeLeu-dLac-OH, DCM, 10.75 mM, 0.0 °C) of 60%.

Turning to `CC(C)C[C@H]1C(=O)O[C@H](Cc2ccc(C3CCOCC3)cc2)C(=O)N(C)[C@@H](CC(C)C)C(=O)O[C@H](C)C(=O)N(C)[C@@H](CC(C)C)C(=O)O[C@H](Cc2ccc(C3CCOCC3)cc2)C(=O)N(C)[C@@H](CC(C)C)C(=O)O[C@H](C)C(=O)N1C` [Compound 7-27], the EC50 in data set [1] was under 0.1 µM; with Haemonchus contortus, 1 to 10 µM. The ring closure, yield after HPLC in data set [2] (from H-MeLeu-dPhLac(4-oxan-4-yl)-MeLeu-dLac-MeLeu-dPhLac(4-oxan-4-yl)-MeLeu-dLac-OH?, 25.0 °C) worked out at 13%.

As to `C[C@H]1OC(=O)[C@H](CC(C)(C)C)N(C)C(=O)[C@@H](Cc2ccc(C3CCOCC3)cc2)OC(=O)[C@H](CC(C)(C)F)N(C)C(=O)[C@@H](C)OC(=O)[C@H](CC(C)(C)C)N(C)C(=O)[C@@H](Cc2ccc(C3CCOCC3)cc2)OC(=O)[C@H](CC(C)(C)F)N(C)C1=O` [Compound 7-32], the EC50 (in data set [1]; in the data set with Haemonchus contortus) was under 0.1 µM each time. The molecule also had a ring closure, yield after HPLC in data set [2] (from H-MeLeu(4-F)-dPhLac(4-(oxan-4-yl))-MeLeu(4-Me)-dLac-MeLeu(4-F)-dPhLac(4-(oxan-4-yl))-MeLeu(4-Me)-dLac-OH, DCM, 25.0 mM) of 61%.

For `CC(C)C[C@H]1C(=O)O[C@H](Cc2ccc(C(C)(C)C)cc2)C(=O)N(C)[C@@H](CC(C)(C)F)C(=O)O[C@H](C)C(=O)N(C)[C@@H](CC(C)C)C(=O)O[C@H](Cc2ccc(C(C)(C)C)cc2)C(=O)N(C)[C@@H](CC(C)(C)F)C(=O)O[C@H](C)C(=O)N1C` [Compound 18-19], in data set [1], the EC50 is under 0.1 µM. In the data set with Haemonchus contortus (read-out: median MIC90), the MIC90 was 1 to 10 µM (≈ 1.1 to 11 µg/mL). The same molecule had a ring closure, yield after HPLC in data set [2] (from H-MeLeu-dPhLac(4-tBu)-MeLeu(4-F)-dLac-MeLeu-dPhLac(4-tBu)-MeLeu(4-F)-dLac-OH, DCM, 0.9 mM) of 13%.

“H-MeLeu(4-F)-dPhLac(4-tBu)-MeLeu(4-Me)-dLac-MeLeu(4-F)-dPhLac(4-tBu)-MeLeu(4-Me)-dLac-OH”: in data set [3], the ring closure, isolated yield came out at 55%.

The values are drawn from US12286455B2, “Anthelmintic depsipeptide compounds” (BOEHRINGER INGELHEIM ANIMAL HEALTH USA INC., priority 2015, dated 2025).
